Test results reported in patent US7151104B2, “Pyrazolopyridines as cyclin dependent kinase inhibitors” (Schering Corporation, priority 2002, dated 2006).

Biological target: T1, Cyclin E/CDK2 (Homo sapiens, UniProt P24941)
T1 construct: The expressed protein was approximately 34 kDa in size; made in house; host or cells: SF9 insect cells (baculovirus co-infection)
Experiment: Cyclin E/CDK2 in vitro kinase assay (SPA, 33P-ATP, biotinylated Histone H1 peptide)
Format: biochemical
Details: recombinant cyclin E/CDK2 from SF9 cells; 8 point serial dilutions in duplicate; 1 hour at room temperature

Compound `Clc1cnn2c(NCc3cncnc3)cc(-c3ccccc3)cc12` has an IC50 of 0.078 µM.
